pEC50: −log10 of the molar value. Structures can show the parent of a compound that is named as a salt. Where two headings read alike, the source gives them in different places.
Columns and labels:
IRAK4 [1] = biological target: T1, IRAK4 (Homo sapiens, UniProt Q9NWZ3); test: LVL THP1 HTRF (THP1 Homogeneous Time Resolved Fluorescence); format: cell-based; conditions: THP1 cells, 18 h incubation with compound; for DC50: read-out: LVL THP1 HTRF EC50
T1 construct: endogenous in cells; host or cells: THP-1 cells
T1 sequence (Q9NWZ3 1-460): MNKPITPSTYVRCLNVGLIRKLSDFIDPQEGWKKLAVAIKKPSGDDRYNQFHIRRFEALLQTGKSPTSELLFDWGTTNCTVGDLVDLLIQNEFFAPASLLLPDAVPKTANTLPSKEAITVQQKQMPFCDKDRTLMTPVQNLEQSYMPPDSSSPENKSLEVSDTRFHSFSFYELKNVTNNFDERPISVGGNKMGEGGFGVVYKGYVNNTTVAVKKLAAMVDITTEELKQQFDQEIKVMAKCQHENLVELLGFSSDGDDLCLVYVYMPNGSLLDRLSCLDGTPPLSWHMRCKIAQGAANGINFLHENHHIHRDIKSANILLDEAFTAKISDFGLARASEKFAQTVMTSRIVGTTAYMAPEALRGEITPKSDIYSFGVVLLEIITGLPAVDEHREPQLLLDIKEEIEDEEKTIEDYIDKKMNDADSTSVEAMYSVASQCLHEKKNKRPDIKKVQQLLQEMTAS
How it was run: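 THP-1 cells in phenol red-free RPMI with 10% FBS were dosed with compound (20 nL in DMSO) for 18 h at 37° C. After 2 h lysis, IRAK4 was detected with anti-IRAK4-d2/anti-IRAK4-K HTRF antibodies for 18 h at room temperature and read at 665/615 nm; a parallel CTG plate was run.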

IRAK4 [2] = biological target: T1, IRAK4; test: ALE THP1 HTRF (Advanced Lipoxidation End Product THP1 Homogeneous Time Resolved Fluorescence); format: cell-based; conditions: THP1 cells
How it was run: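 Cells lysed 45 min at room temperature; lysates normalized to total protein by BCA. Total IRAK4 detected by HTRF sandwich (anti-IRAK4-d2 plus anti-IRAK4-cryptate), incubated overnight in the dark at room temperature, read on a time-resolved fluorescence plate reader.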

[3] = Pharmacokinetic studies in mice (plasma PK, IV and PO); format: in vivo; conditions: female C57B16 mice; for FPO: PO 3.0 mg/kg vs IV 0.50 mg/kg, dose-normalized AUCLAST; for clearance: read-out: Clp; for Vd: read-out: VSS
Experimental: Due to the higher molecular weight and lipophilicity, targeted protein degraders generally occupy a physiochemical property space that is beyond Lipinski's rule of 5 and as consequence are expected to have poor oral bioavailability and overall pharmacokinetic properties. […] The plasma pharmacokinetics (PK) of P-394, P-155, P-139, and P-160 were characterized in female C57B16 mice following intravenous (IV; 0.5 mg/kg) administration. Plasma from the tail vein was withdrawn in composite fashion: one group of mice (n=3) provided samples at 2 min, 30 min, 2 h, and 8 h, while another group (n=3) provided samples at 15 min, 1 h, 4 h, and 24 h. The concentrations of test article in these samples were measured using reverse-phase LC-MS-MS and then plotted as a function of time. The resulting concentration-time data was processed using noncompartmental analysis for the calculation of clearance (Cl), volume of distribution at steady state (Vss), half-life, mean residence time (MRT) and area under the time curve (AUC).
Similarly, the PK was characterized following oral (PO; 3 mg/kg) administration. Again, plasma from the tail vein was withdrawn in composite fashion: one group of mice (n=3) provided samples at 15 min, 1 h, 4 h, and 8 h, while another group (n=3) provided samples at […], 2 h, and 24 h. Oral bioavailability (FPO) was calculated by comparing the results of the studies described, dividing the dose-normalized AUCLAST,PO by the dose-normalized AUCLAST,IV.

[4] = mouse, 0.5 mg/kg, IV 0.50 mg/kg, plasma
[5] = mouse, 0.5 mg/kg, plasma, IV 0.50 mg/kg

| Structure (SMILES) | LVL THP1 HTRF YMIN (IRAK4 [1]) | DC50 (IRAK4 [1]) | ALE THP1 HTRF YMIN (IRAK4 [2]) | pEC50 (IRAK4 [2]) | FPO [3] | AUC(0-t) [3, 4] | MRT [3, 4] | half-life [3, 4] | clearance [3, 4] | Vd [3, 4] | AUC(0-t) ([3]; mouse, PO 3.0 mg/kg, plasma) | Cmax ([3]; mouse, PO 3.0 mg/kg, plasma) | Tmax ([3]; mouse, PO 3.0 mg/kg, plasma) | other results |
| --- | --- | --- | --- | --- | --- | --- | --- | --- | --- | --- | --- | --- | --- | --- |
| C[C@H](C#N)Nc1cc(-n2ncc3cc(C#N)cnc32)ncc1-n1cc([C@H]2CC[C@H](CCN3CCN(c4ccc(C5CCC(=O)NC5=O)cc4)CC3)CC2)nn1 (stereo partly drawn) [P-139, 1-(4-(((R)-1-cyanoethyl)amino)-5-(4-((1r,4R)-4-(2-(4-(4-(2,6-dioxopiperidin-3-yl)phenyl)piperazin-1-yl)ethyl)cyclohexyl)-1H-1,2,3-triazol-1-yl)pyridin-2-yl)-1H-pyrazolo[3,4-b]pyridine-5-carbonitrile, formic acid salt] | 1.7% | 11 nM | 5.6% | 9.00 | 39% | 1.06 µM·h | 4.59 h | 2.98 h | 10.6 mL/min/kg | 2.91 L/kg | 2.47 µM·h | 380 nM | 2 h |  |
| C[C@H](C#N)Nc1cc(-n2ncc3cc(C#N)cnc32)ncc1-n1cc(C2CCC(CCN3CCN(c4ccc(C5CCC(=O)NC5=O)cc4)[C@H](C)C3)CC2)nn1 (stereo partly shown) [P-155] | 0.9% | 6 nM | 10.2% | 8.70 | ~100% | 2.01 µM·h | 3.3 h | 4.1 h | 5.45 mL/min/kg | 1.08 L/kg | 13.7 µM·h | 3010 nM | 2 h |  |
| C[C@H](C#N)Nc1cc(-n2ncc3cc(C#N)c(N)nc32)ncc1-n1cc([C@H]2CC[C@H](CCN3CCN(c4ccc(C5CCC(=O)NC5=O)cc4)CC3)CC2)nn1 (stereo partly drawn) [P-160, 6-amino-1-(4-(((R)-1-cyanoethyl)amino)-5-(4-((1r,4R)-4-(2-(4-(4-(2,6-dioxopiperidin-3-yl)phenyl)piperazin-1-yl)ethyl)cyclohexyl)-1H-1,2,3-triazol-1-yl)pyridin-2-yl)-1H-pyrazolo[3,4-b]pyridine-5-carbonitrile, TFA] | 0.7% | 4 nM | 5.8% | 8.40 | 31.6% | 0.739 µM·h | 3.8 h | 3.2 h | 14.9 mL/min/kg | 3.37 L/kg | 1.4 µM·h | 245 nM | 2 h |  |
| C[C@H](C#N)Nc1cc(-n2ncc3cc(C#N)cnc32)ncc1C(=O)N[C@H]1CC[C@H](CCN2C[C@H]3C[C@@H](C2)N3c2ccc(C3CCC(=O)NC3=O)cc2)CC1 (stereo partly shown) [P-180] | 18.9% | 702 nM | 7.5% | 8.22 |  |  |  |  |  |  |  |  |  |  |
| C[C@H](C#N)Nc1cc(-n2ncc3cc(C#N)c(N)nc32)ncc1C(=O)N[C@H]1CC[C@H](CCN2CCN(c3ccc(C4CCC(=O)NC4=O)cc3)C(C(F)(F)F)C2)CC1 (stereo partly shown) [P-181] | 18.3% | 112 nM | 27.7% | 6.77 |  |  |  |  |  |  |  |  |  |  |
| C[C@H](C#N)Nc1cc(-n2ncc3cc(C#N)cnc32)ncc1C(=O)N[C@H]1CC[C@H](CCN2CCN(c3ccc(C4CCC(=O)NC4=O)cc3)C3(CCC3)C2)CC1 (stereo partly shown) [P-182] | 6.3% | 415 nM | 9.4% | 8.30 |  |  |  |  |  |  |  |  |  |  |
| C[C@H](C#N)Nc1cc(-n2ncc3cc(C#N)cnc32)ncc1C(=O)N[C@H]1CC[C@H](CCN2[C@@H]3C[C@H]2CN(c2ccc(C4CCC(=O)NC4=O)cc2)C3)CC1 (stereo partly shown) [P-183] | <0.5% | 12 nM | 27.9% | 7.20 |  |  |  |  |  |  |  |  |  |  |
| C[C@H](C#N)Nc1cc(-n2ncc3cc(C#N)c(N)nc32)ncc1C(=O)N[C@H]1CC[C@H](CCN2CCN(c3ccc(C4CCC(=O)NC4=O)cc3)C(C(F)(F)F)C2)CC1 (stereo partly shown) [P-186] | 5.7% | 29 nM | 13.9% | 7.47 |  |  |  |  |  |  |  |  |  |  |
| CC[C@@H]1CN(CC[C@H]2CC[C@H](c3cn(-c4cnc(-n5ncc6cc(C#N)cnc65)cc4N[C@H](C)C#N)nn3)CC2)CCN1c1ccc(N2CCC(=O)NC2=O)cn1 [P-394, 1-(4-(((R)-1-cyanoethyl)amino)-5-(4-((1R,4R)-4-(2-((R)-4-(5-(2,4-dioxotetrahydropyrimidin-1(2H)-yl)pyridin-2-yl)-3-ethylpiperazin-1-yl)ethyl)cyclohexyl)-1H-1,2,3-triazol-1-yl)pyridin-2-yl)-1H-pyrazolo[3,4-b]pyridine-5-carbonitrile] | 1.4% | 6 nM |  |  |  |  |  |  |  |  |  |  |  | AUC(0-t) [3, 5]: 0.884 µM·h; MRT [3, 5]: 2.2 h; half-life [3, 5]: 1.7 h; clearance [3, 5]: 11.8 mL/min/kg; Vd [3, 5]: 1.58 L/kg; bioavailability ([3]; mouse, plasma, PO 3.00 mg/kg vs IV 0.50 mg/kg, dose-normalized AUCLAST ratio, read-out: FPO (oral bioavailability)): 26.6%; AUC(0-t) ([3]; mouse, plasma, PO 3.00 mg/kg): 1.41 µM·h; Cmax ([3]; mouse, plasma, PO 3.00 mg/kg): 559 nM; Tmax ([3]; mouse, plasma, PO 3.00 mg/kg): 0.25 h |
